From patent US7276493B2, “Fungicide for treating plants” (Valent BioSciences Corporation, priority 2003, dated 2007)

What was measured:
[1] = test system: Phaseolus vulgaris (Bush bean cv. Blue Lake 274); assay: Detached bean leaf bioassay, phytotoxicity rating; format: in vivo
Method: Compound solution: Compound solutions were prepared by diluting compound stock solutions (1.0% w/v compound in DMSO) to 200 ppm with 0.01% w/v Triton X-100. Plant material: Middle trifoliate leaves of greenhouse grown Phaseolus vulgaris (Bush bean cv. Blue Lake 274) were excised and placed on a plastic grid above a tray containing moist towels. Treatment method: One half of the adaxial surface of the leaf was treated with the compound solution (100:L) using a 3 cm Bacti Cell Spreader. A blank consisted of 0.01% w/v Triton X-100. A commercial fungicide control (200 ppm diluted with water) consisted of Scala. After the solutions dried, the trays containing the leaves were covered and held one day in a growth chamber (22C). The adaxial surfaces of the leaves were then inoculated with 5–60:L droplets of Botrytis cinerea spore solution. Phytotoxicity ratings: Phytotoxicity was rated as 0=no phytotoxicity, 1=slight phytotoxicity, 2=moderate phytotoxicity, or 3=excessive phytotoxicity (Table 2).

Botrytis cinerea [2] = assay: Detached bean leaf bioassay, fungal control; format: in vivo; conditions: detached bean leaf (Phaseolus vulgaris), three days after inoculation, 100 minus percent necrotic area
Method: Compound solution: Compound solutions were prepared by diluting compound stock solutions (1.0% w/v compound in DMSO) to 200 ppm with 0.01% w/v Triton X-100.
Spore solution preparation: Botrytis cinerea spores were taken from 6-week-old cultures grown at 22C on full strength potato dextrous agar (PDA) plates and harvested in 1:16 frozen orange juice concentrate:water. Botrytis cinerea spore solutions were prepared by diluting spore cultures to 5×10^4 spores/mL with 1:16 frozen orange juice concentrate:water.
Plant material: Middle trifoliate leaves of greenhouse grown Phaseolus vulgaris (Bush bean cv. Blue Lake 274) were excised and placed on a plastic grid above a tray containing moist towels.
Treatment method: One half of the adaxial surface of the leaf was treated with the compound solution (100:L) using a 3 cm Bacti Cell Spreader. A blank consisted of 0.01% w/v Triton X-100. A commercial fungicide control (200 ppm diluted with water) consisted of Scala. […]
Fungal control rating: Three days after inoculation with Botrytis, the percent necrotic area under the inoculation droplet was determined. Since the areas under the blank (0.01% w/v Triton X-100) were 100% infected, fungal control was expressed as 100 minus the percent necrotic area, and thus 0% infected is 100% fungal control (n=3 leaves/compound, 5 inoculation droplets/leaf, Table 2).

Sclerotinia sclerotiorum = assay: Contact evaluation (microtiter plate); format: cell-based; design: key: Full: fungal inhibition was rated as full, partial, or none; Partial: fungal inhibition was rated as full, partial, or none; None: fungal inhibition was rated as full, partial, or none; conditions: Sclerotinia sclerotionum
Method: (§1) Compound solution: Contact evaluations were conducted to determine the anti-fungal activity of each compound against Botrytis cinerea, Sclerotinia sclerotiorum, Pythium aphanidermatum, Rhizoctonia solani, Cercospora arachidicola, Mycosphaerella fijiensis, and Monilinia laxa. Five milligrams of each compound were dissolved in 0.5 milliliter of DMSO for a compound stock solution of 1.0% w/v. Compound stock solutions were serial diluted with DMSO to 20, 10, and 2 ppm final well concentration. Fungi preparation: Botrytis cinerea spores were taken from 6-week-old cultures grown at 22C on full strength potato dextrous agar (PDA) plates. Sclerotinia sclerotiorum, Pythium aphanidermatum, Rhizoctonia solani, and Monilinia laxa mycelia were taken from 4- to 10-day-old shake flask cultures grown at room temperature on full strength potato dextrous broth (PDB). Cercospora arachidicola mycelia were taken from 10- to 14-day-old shake flask cultures grown at room temperature on a full strength PDB amended with peanut oil. Mycosphaerella fijiensis mycelia were taken from 10- to 14-day-old shake flask cultures grown at room temperature on V8 juice broth. Sclerotinia sclerotiorum, Pythium aphanidermatum, Rhizoctonia solani, Cercospora arachidicola, and Mycosphaerella fijiensis mycelia (0.4 g mycelia) were blended for 45 seconds in 20 mL sterile de-ionized water. Monilinia laxa mycelia (1 g mycelia) was blended for 45 seconds in 30 mL of sterile de-ionized water. Botrytis cinerea spores were diluted with quarter strength PDB to 1×10^5 spores/mL final well concentration. All mycelia were diluted in water (1:5 mycelia:water) before distributing into the wells. Microtiter plate preparation: Compound solution (10:L), quarter strength PDB (900:L) and fungi preparation (100:L) were sequentially distributed into 48-well microtiter plates (n=3 replications/compound/rate). A blank consisted of quarter strength PDB and fungi preparation. Commercial fungicide controls (100 ppm diluted with water) consisted of Scala for Botrytis cinerea, Dithane F-45 for Mycosphaerella fijiensis, and Benlate for Sclerotinia sclerotiorum, Pythium aphanidermatum, Rhizoctonia solani, Cercospora arachidicola, and Monilinia laxa. Plates were shaken in a circular rotator at room temperature for 20 minutes, then incubated at 25C for 24 to 72 hours, depending on the pathogen. Fungal control ratings: Fungal growth in wells containing the compounds were compared to the positive control and fungal inhibition was rated as full, partial, or none. Final readings were the average of the three wells (Table 1).

Mycosphaerella fijiensis = assay: Contact evaluation (microtiter plate); format: cell-based; design: key: Full: fungal inhibition was rated as full, partial, or none; Partial: fungal inhibition was rated as full, partial, or none; None: fungal inhibition was rated as full, partial, or none
Method: as §1

Pythium aphanidermatum = assay: Contact evaluation (microtiter plate); format: cell-based; design: key: Full: fungal inhibition was rated as full, partial, or none; Partial: fungal inhibition was rated as full, partial, or none; None: fungal inhibition was rated as full, partial, or none
Method: as §1

Monilinia laxa = assay: Contact evaluation (microtiter plate); format: cell-based; design: key: Full: fungal inhibition was rated as full, partial, or none; Partial: fungal inhibition was rated as full, partial, or none; None: fungal inhibition was rated as full, partial, or none
Method: as §1

Cercospora arachidicola = assay: Contact evaluation (microtiter plate); format: cell-based; design: key: Full: fungal inhibition was rated as full, partial, or none; Partial: fungal inhibition was rated as full, partial, or none; None: fungal inhibition was rated as full, partial, or none
Method: as §1

Botrytis cinerea [3] = assay: Contact evaluation (microtiter plate); format: cell-based; design: key: Full: fungal inhibition was rated as full, partial, or none; Partial: fungal inhibition was rated as full, partial, or none; None: fungal inhibition was rated as full, partial, or none
Method: as §1

Rhizoctonia solani = assay: Contact evaluation (microtiter plate); format: cell-based; design: key: Full: fungal inhibition was rated as full, partial, or none; Partial: fungal inhibition was rated as full, partial, or none; None: fungal inhibition was rated as full, partial, or none; conditions: Rhizoctinia solani
Method: as §1

C/C1=C\C=C\CCC(C)CNC(=O)/C=C/C=C/C(C)C(O)C/C=C(\C)C1 (centres unmarked) [formula I]
None: Phytotoxity (200 ppm) [1]
31%: Botrytis cinerea control (200 ppm) (Botrytis cinerea [2])
Full: Control of fungi (full, partial, none) (Sclerotinia sclerotiorum; fungicide rate 2 ppm) | Control of fungi (full, partial, none) (Sclerotinia sclerotiorum; fungicide rate 10 ppm) | Control of fungi (full, partial, none) (Sclerotinia sclerotiorum; fungicide rate 20 ppm) | Control of fungi (full, partial, none) (Mycosphaerella fijiensis; fungicide rate 2 ppm) | Control of fungi (full, partial, none) (Mycosphaerella fijiensis; fungicide rate 10 ppm) | Control of fungi (full, partial, none) (Mycosphaerella fijiensis; fungicide rate 20 ppm) | Control of fungi (full, partial, none) (Pythium aphanidermatum; fungicide rate 2 ppm) | Control of fungi (full, partial, none) (Pythium aphanidermatum; fungicide rate 10 ppm) | Control of fungi (full, partial, none) (Pythium aphanidermatum; fungicide rate 20 ppm) | Control of fungi (full, partial, none) (Monilinia laxa; fungicide rate 2 ppm) | Control of fungi (full, partial, none) (Monilinia laxa; fungicide rate 10 ppm) | Control of fungi (full, partial, none) (Monilinia laxa; fungicide rate 20 ppm) | Control of fungi (full, partial, none) (Cercospora arachidicola; fungicide rate 2 ppm) | Control of fungi (full, partial, none) (Cercospora arachidicola; fungicide rate 10 ppm) | Control of fungi (full, partial, none) (Cercospora arachidicola; fungicide rate 20 ppm) | Control of fungi (full, partial, none) (Botrytis cinerea [3]; fungicide rate 2 ppm) | Control of fungi (full, partial, none) (Botrytis cinerea [3]; fungicide rate 10 ppm) | Control of fungi (full, partial, none) (Botrytis cinerea [3]; fungicide rate 20 ppm) | Control of fungi (full, partial, none) (Rhizoctonia solani; fungicide rate 2 ppm) | Control of fungi (full, partial, none) (Rhizoctonia solani; fungicide rate 10 ppm) | Control of fungi (full, partial, none) (Rhizoctonia solani; fungicide rate 20 ppm)
